Columns and labels:
[1] = DSC double peak area of relaxed hair after treatment; conditions: for Double Peak Area: relaxed ethnic hair, 10 min at 45° C.
Protocol: (§1) Kinky hair was relaxed using 2.5% sodium hydroxide (20 min at room temperature). The hair was thoroughly rinsed with water, and a treatment solution was applied for 10 min at 45° C. Each of the following treatment solutions were tested: a) 1% D-xylose, b) 5% D-xylose, and c) deionized water-control treatment.

[2] = Cuticle loss estimated by UV transmittance of suspension; conditions: relaxed ethnic hair, greater transmittance = less cuticle loss
Protocol: as §1
The cuticle loss was estimated as follows. The relaxed/treated hair (0.5 g) was immersed in 2.5 mL deionized water for 15 min at 45° C. The hair was removed and UV transmittance of the remaining cloudy suspension was determined. The greater the transmittance, the less material is suspended, and therefore, the less damage to the hair.

[3] = Protein loss from hair in water; conditions: bleached hair treated 5 times (1% solutions; Xylo-Biose Syrup 1.5%), then 1 h at 45° C. in deionized water
Protocol: XyloBiose Syrup is a raw material that contains about 15 wt % of xylobiose (dimer) and about 12 wt % of xylose. Xylo-Oligo 95P is a raw material containing about 22 wt % of xylobiose. Bleached hair was rinsed and blot-dried with a paper-towel. The treatment solution was then applied to the hair for 10 min at 45° C., and the hair was blow-dried. The procedure was repeated 5 times. Each of the following solutions was tested: • 1% D-Xylose • 1% Xylo-Oligo 95P • 1.5% XyloBiose Syrup • deionized water-control treatment
Following blow drying, a hair swatch (0.5 g) was immersed in 25 mL of deionized water for 1 h at 45° C. and the water was analyzed for the protein content. Id.

[4] = Hair chemical composition (lysine, arginine) after heat cycles; conditions: 1.0% solution
Protocol: The repairing of the damaged hair by pentoses is further supported by changes in the hair chemical composition that are observed when the hair was treated with pentose solutions, followed by heat application. Specifically, the amounts of lysine and arginine decreased, as compared to the hair treated with water (Table 19). The change in the lysine/arginine content, in conjunction with the decreased extension to break, appears to indicate that some cross-linking processes occur when the hair is heated in the presence of pentoses.

[5] = bleached/permed hair after 12 cycles at 130° C.

SMILES: O=C[C@H](O)[C@@H](O)[C@H](O)CO [D-Xylose]
- Double Peak Area ([1]; 1% solution): 14.10 +/− 2.52 J/g hair
- Double Peak Area ([1]; 5% solution): 21.35 +/− 19.02 J/g hair
- protection of relaxed hair (α-structure, tensile strength, cuticle loss) compared to water, in words ([1]; relaxed kinky hair): protected
- Transmittance, at 600 nm ([2]; 1% solution): 0.9545
- Transmittance, at 600 nm ([2]; 5% solution): 0.9339
- Protein loss [3]: 200.9 +/− 36.5 microgram/g hair
- Arginine ([4]; bleached hair after 12 cycles at 130° C.): 8.0 +/− 0.1 wt %
- Arginine [4, 5]: 7.2 +/− 0.1 wt %
- Lysine [4, 5]: 1.6 +/− 0.1 wt %

Reference: US7815900B1, “Use of C3-C5 monosaccharides to protect keratinous fibers” (L'Oréal S.A., priority 2000, dated 2010)
